From article PMC6204527, “The Human Gut Colonizer Blastocystis Respires Using Complex II and Alternative Oxidase to Buffer Transient Oxygen Fluctuations in the Gut” (Frontiers in Cellular and Infection Microbiology, 2018)

Tests used:
[1] = target: T1, Blastocystis alternative oxidase (AOX) (Blastocystis hominis, UniProt D3GDI7); assay: O2 uptake, Clark electrode, E. coli FN102 membranes; assay type: biochemical; conditions: 1 mM duroquinol; O2 co-substrate (250 μM); 50 mM Tris-HCl pH 7.5; 25 °C
T1 construct: full-length 304 aa (predicted 35 kDa), N-terminal 6xHis from pET-14b, expressed in heme-deficient E. coli FN102; E. coli membranes or whole cells
T1 sequence (D3GDI7 1-304): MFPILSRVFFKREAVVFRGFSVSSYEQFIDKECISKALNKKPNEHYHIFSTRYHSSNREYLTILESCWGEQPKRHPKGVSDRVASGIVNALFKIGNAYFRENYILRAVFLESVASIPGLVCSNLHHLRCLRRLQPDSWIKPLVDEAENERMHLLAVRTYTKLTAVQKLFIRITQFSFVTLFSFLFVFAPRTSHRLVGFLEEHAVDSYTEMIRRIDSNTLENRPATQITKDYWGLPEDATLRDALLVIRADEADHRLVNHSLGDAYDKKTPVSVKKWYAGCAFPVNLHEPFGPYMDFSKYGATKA

[2] = target: T1, Blastocystis alternative oxidase (AOX); assay: as above; assay type: biochemical; conditions: 1 mM duroquinol; 50 mM Tris-HCl pH 7.5; 25 °C; antimycin A 1 μM also added

Structure (SMILES): Cc1c(C)c(O)c(C)c(C)c1O [DQH2, duroquinol]
- O2 uptake, Clark electrode, E. coli FN102 membranes [1]: Addition of duroquinol (Sigma), an AOX substrate, initiates oxygen consumption

Structure (SMILES): CCCCCCCCOC(=O)c1cc(O)c(O)c(O)c1 [OG, octylgallate]
- inhibition at 25 μM [2]: Oxygen consumption is almost completely abated by the addition of octylgallate, an AOX inhibitor
